Experimental data: ChEMBL document CHEMBL5465560, “Selectivity Literature for EUbOPEN Chemogenomic Library” (2024)

What was measured:
[1] = target: Serine/threonine-protein kinase SIK2 (Homo sapiens) (UniProt Q9H0K1); settings: at 10 µM
[2] = target: T1, Cyclin-G-associated kinase (Homo sapiens) (UniProt O14976); settings: at 10 µM
T1 sequence (whole entry): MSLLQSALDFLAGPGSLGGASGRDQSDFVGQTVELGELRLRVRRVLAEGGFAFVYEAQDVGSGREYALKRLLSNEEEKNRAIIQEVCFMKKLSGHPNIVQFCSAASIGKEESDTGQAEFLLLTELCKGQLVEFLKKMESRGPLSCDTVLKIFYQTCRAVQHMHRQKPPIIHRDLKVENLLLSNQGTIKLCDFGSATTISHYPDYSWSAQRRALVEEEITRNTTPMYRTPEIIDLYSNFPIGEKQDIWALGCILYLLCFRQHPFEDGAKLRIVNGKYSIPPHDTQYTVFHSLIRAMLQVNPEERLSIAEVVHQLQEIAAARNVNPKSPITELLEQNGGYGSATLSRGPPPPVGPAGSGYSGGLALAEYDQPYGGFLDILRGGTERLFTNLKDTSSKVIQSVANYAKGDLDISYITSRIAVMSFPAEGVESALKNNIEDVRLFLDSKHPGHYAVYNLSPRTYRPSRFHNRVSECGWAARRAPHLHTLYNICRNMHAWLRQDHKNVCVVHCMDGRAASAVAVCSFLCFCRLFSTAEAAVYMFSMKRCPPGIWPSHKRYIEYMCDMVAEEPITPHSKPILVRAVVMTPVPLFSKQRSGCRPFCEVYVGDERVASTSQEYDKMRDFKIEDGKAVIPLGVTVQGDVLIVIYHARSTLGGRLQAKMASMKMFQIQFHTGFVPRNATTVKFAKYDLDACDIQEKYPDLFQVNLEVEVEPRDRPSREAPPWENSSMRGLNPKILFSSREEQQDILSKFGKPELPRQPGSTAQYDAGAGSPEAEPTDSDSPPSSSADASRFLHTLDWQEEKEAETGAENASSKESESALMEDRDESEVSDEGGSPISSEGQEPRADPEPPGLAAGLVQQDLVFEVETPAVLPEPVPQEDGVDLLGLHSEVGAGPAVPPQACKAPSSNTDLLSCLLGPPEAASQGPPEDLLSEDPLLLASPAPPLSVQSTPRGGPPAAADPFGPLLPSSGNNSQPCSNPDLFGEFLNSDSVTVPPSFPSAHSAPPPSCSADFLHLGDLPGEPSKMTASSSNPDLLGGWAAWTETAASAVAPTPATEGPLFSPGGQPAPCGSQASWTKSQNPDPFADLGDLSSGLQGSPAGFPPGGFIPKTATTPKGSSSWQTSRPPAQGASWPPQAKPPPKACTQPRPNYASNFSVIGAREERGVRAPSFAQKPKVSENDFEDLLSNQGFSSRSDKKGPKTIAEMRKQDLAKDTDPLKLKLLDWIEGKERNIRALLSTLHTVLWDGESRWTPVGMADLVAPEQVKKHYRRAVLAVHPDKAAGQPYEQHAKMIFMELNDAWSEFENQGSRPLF

[3] = target: Maternal embryonic leucine zipper kinase (Homo sapiens) (UniProt Q14680); assay: Selectivity interaction (Kinase panel (Invitrogen)) EUB0000639a MELK; settings: at 200 nM
Chain of Maternal embryonic leucine zipper kinase (Homo sapiens) (Q14680 whole entry, looked up): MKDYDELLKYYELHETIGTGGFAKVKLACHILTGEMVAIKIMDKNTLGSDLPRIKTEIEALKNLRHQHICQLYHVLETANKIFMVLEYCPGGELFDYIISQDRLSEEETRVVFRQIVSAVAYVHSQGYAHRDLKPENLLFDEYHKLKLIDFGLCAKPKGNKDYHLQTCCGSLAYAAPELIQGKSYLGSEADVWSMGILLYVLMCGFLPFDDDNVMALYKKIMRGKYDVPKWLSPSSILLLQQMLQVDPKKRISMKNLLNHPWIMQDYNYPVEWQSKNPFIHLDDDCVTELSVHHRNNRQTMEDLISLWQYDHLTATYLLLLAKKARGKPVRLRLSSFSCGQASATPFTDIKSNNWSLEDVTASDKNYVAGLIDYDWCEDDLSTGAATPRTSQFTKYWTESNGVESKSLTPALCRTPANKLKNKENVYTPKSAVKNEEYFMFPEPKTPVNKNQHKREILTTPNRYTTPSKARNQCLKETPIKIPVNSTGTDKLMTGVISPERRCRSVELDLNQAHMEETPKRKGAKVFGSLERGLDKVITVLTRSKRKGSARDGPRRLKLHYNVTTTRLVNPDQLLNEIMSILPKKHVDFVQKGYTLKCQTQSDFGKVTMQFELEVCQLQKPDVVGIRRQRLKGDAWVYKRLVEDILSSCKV

[4] = target: DNA (cytosine-5)-methyltransferase 3A (Homo sapiens) (UniProt Q9Y6K1); settings: at 1 µM
Chain of DNA (cytosine-5)-methyltransferase 3A (Homo sapiens) (Q9Y6K1 whole entry, looked up): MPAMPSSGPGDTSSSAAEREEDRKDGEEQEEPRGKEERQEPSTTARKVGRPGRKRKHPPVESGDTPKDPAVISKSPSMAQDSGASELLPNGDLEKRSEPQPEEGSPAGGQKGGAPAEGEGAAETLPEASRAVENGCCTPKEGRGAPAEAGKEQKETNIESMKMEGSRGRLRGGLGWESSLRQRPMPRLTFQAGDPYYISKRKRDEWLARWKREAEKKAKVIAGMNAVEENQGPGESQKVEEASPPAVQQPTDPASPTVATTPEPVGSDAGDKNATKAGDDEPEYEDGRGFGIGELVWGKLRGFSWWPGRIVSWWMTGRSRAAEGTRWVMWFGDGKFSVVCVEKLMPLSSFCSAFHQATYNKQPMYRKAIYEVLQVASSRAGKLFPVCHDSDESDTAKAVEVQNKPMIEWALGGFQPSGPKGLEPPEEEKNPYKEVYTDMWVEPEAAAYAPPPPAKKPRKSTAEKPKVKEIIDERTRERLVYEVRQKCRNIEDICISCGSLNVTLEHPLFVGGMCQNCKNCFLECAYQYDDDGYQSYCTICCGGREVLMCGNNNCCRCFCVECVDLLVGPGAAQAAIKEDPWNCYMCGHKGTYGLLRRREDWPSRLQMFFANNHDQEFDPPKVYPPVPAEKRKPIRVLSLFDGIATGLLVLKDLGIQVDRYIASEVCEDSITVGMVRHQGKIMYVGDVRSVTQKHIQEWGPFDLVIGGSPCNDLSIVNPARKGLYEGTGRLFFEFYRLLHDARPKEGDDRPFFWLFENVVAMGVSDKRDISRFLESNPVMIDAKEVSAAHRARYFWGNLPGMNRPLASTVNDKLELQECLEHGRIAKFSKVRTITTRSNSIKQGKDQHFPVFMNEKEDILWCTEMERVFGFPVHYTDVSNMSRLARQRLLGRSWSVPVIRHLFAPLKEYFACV

[5] = target: T2, Ephrin type-A receptor 3 (Homo sapiens) (UniProt P29320); assay: Selectivity interaction (KinomeScan (DiscoverX)) EUB0001619a EPHA3; settings: at 1 µM
T2 sequence (whole entry): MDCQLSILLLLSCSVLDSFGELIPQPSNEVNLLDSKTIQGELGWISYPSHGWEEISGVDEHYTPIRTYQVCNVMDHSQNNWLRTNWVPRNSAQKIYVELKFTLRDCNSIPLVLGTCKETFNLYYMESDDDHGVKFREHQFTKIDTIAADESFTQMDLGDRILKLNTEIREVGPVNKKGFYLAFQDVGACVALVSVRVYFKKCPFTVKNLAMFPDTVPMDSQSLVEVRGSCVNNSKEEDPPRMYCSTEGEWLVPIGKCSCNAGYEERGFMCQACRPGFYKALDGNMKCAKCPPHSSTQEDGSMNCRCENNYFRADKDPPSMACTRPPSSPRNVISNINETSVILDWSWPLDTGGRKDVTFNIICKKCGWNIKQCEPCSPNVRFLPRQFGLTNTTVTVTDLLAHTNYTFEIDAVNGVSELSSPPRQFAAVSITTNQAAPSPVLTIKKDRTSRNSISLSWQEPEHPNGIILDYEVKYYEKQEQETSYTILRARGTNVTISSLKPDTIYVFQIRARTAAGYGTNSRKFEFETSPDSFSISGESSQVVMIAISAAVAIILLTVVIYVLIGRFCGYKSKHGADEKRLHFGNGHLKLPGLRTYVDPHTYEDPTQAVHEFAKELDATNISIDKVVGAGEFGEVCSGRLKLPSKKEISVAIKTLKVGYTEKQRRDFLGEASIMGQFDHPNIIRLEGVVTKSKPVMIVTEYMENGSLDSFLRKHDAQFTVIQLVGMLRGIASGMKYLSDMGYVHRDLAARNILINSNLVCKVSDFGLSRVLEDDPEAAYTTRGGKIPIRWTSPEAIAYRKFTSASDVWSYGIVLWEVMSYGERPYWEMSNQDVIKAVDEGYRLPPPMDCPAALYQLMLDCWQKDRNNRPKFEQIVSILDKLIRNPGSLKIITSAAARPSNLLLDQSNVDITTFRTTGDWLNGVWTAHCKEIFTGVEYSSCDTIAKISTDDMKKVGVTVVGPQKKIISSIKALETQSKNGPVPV

Chain of Serine/threonine-protein kinase SIK2 (Homo sapiens) (Q9H0K1 whole entry, looked up): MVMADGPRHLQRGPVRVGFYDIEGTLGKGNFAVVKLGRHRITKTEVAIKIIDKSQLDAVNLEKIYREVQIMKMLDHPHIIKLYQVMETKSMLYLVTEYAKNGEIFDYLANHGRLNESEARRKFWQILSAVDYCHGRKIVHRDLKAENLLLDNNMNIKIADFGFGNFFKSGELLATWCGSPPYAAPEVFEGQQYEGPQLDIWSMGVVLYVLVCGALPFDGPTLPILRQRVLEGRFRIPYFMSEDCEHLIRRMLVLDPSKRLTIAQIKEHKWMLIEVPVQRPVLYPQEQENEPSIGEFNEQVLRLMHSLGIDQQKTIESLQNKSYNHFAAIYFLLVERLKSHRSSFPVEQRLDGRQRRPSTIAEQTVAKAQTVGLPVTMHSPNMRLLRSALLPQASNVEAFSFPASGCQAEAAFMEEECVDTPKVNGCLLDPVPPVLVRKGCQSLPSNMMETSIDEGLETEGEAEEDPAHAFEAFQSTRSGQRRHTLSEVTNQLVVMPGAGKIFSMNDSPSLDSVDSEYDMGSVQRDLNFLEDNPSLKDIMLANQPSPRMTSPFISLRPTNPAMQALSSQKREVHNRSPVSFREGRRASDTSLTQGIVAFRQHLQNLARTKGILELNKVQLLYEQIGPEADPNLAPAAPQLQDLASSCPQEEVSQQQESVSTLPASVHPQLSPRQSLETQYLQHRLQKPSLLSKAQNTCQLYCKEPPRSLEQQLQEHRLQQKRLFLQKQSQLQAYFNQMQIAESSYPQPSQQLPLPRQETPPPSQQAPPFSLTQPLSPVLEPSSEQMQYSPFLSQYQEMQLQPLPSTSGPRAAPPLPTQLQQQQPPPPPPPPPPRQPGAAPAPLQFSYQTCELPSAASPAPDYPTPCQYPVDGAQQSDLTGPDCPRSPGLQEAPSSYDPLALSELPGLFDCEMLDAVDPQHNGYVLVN

How did the % of control [1] turn out when `CCN(CC)CCCCNc1ncc2cc(-c3cc(OC)cc(OC)c3)c(NC(=O)NC(C)(C)C)nc2n1` was run?
Its % of control is 100%.

Which % of control [2] does the source give for `Cc1cc([C@@H](C)Nc2ccccc2C(=O)O)c2nc(N3CCOCC3)cc(=O)n2c1` [AZD-6482] here?
The % of control was 75%.

For `CC[C@@H]1[C@H](F)C(=O)N[C@@H]1COc1nccc2cc(C(N)=O)c(OC)cc12` [ZIMLOVISERTIB], which % of inhibition [3] is on record?
Its % of inhibition is 25.9%.

For `CNCCN1CCC(c2cc(CN(C)C(=O)c3cccc(Oc4ccccc4)c3)ccn2)CC1`, which % activity [4] is on record?
The % activity was greater than 90%.

`N#Cc1cccc(-c2c[nH]c3ncnc(N4CCOCC4)c23)c1` was tested. Which % of control [5] did it give?
Its % of control is 66%.
